# Measurements published in patent US8802597B2, “Herbicidal pyrimidines” (E I du Pont de Nemours and Company, priority 2003, dated 2014).
# Like-named read-outs stand apart in the source and are kept apart here.
# How the values were obtained:
# Assay type in all cases: in vivo
# [1] = test system: common ragweed (Ambrosia elatior); assay: Test C pre/postemergence; details: for pest or weed control at 62 g/ha / pest or weed control at 125 g/ha / pest or weed control at 250 g/ha / pest or weed control at 500 g/ha: Ambrosia artemisiifolia
# Outline: (§1)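 Visual injury ratings, 0 (no effect) to 100 (complete control), made 12 to 14 days after treatment by comparison with untreated controls. Greenhouse plants received test chemical in a surfactant-containing non-phytotoxic solvent, either preemergence on planted seeds or postemergence at the 1- to 4-leaf stage.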
# corn (Zea mays) = assay: Test C pre/postemergence; details: for Corn plant response rating (crop injury, 0 = no effect, 100 = complete kill) at 62 g/ha / Corn plant response rating (crop injury, 0 = no effect, 100 = complete kill) at 125 g/ha / Corn plant response rating (crop injury, 0 = no effect, 100 = complete kill) at 250 g/ha / Corn plant response rating (crop injury, 0 = no effect, 100 = complete kill) at 500 g/ha: Zea mays
# Outline: as §1
# [2] = test system: lambsquarters (Chenopodium album); assay: Test C pre/postemergence; details: for pest or weed control at 62 g/ha / pest or weed control at 125 g/ha / pest or weed control at 250 g/ha / pest or weed control at 500 g/ha: Chenopodium album
# Outline: as §1
# [3] = test system: cocklebur (Xanthium strumarium); assay: Test C pre/postemergence; details: for pest or weed control at 62 g/ha / pest or weed control at 125 g/ha / pest or weed control at 250 g/ha / pest or weed control at 500 g/ha: Xanthium strumarium
# Outline: as §1
# [4] = test system: chickweed (Stellaria media); assay: Test C postemergence; details: for pest or weed control at 62 g/ha / pest or weed control at 125 g/ha / pest or weed control at 250 g/ha / pest or weed control at 500 g/ha: Stellaria media, post-emergence; for pest or weed control at 62 g/ha: read-out: Chickweed plant response rating; for pest or weed control at 125 g/ha / pest or weed control at 250 g/ha / pest or weed control at 500 g/ha: scale 0 to 100, read-out: Plant response rating, Chickweed; for Plant response rating, Chickweed: scale 0 to 100
# Outline: as §1
# [5] = post-emergence, Postemergence, 62 g ai/ha, scale 0 to 100 (0 no effect, 100 complete control), read-out: Ragweed plant response rating
# [6] = post-emergence, Postemergence, 125 g ai/ha, scale 0 to 100 (0 no effect, 100 complete control), read-out: Ragweed plant response rating
# [7] = post-emergence, Postemergence, 250 g ai/ha, scale 0 to 100, read-out: Plant response rating, Ragweed
# [8] = post-emergence, Postemergence, 500 g ai/ha, scale 0 to 100, read-out: Plant response rating, Ragweed
# [9] = post-emergence, Postemergence, 62 g ai/ha, scale 0 to 100 (0 no effect, 100 complete control), read-out: Corn plant response rating
# [10] = post-emergence, Postemergence, 125 g ai/ha, scale 0 to 100 (0 no effect, 100 complete control), read-out: Corn plant response rating
# [11] = post-emergence, Postemergence, 250 g ai/ha, scale 0 to 100
# [12] = post-emergence, Postemergence, 500 g ai/ha, scale 0 to 100
# [13] = post-emergence, Postemergence, 62 g ai/ha, scale 0 to 100 (0 no effect, 100 complete control), read-out: Lambsquarters plant response rating
# [14] = post-emergence, Postemergence, 125 g ai/ha, scale 0 to 100 (0 no effect, 100 complete control), read-out: Lambsquarters plant response rating
# [15] = post-emergence, Postemergence, 250 g ai/ha, scale 0 to 100, read-out: Plant response rating, Lambsquarters
# [16] = post-emergence, Postemergence, 500 g ai/ha, scale 0 to 100, read-out: Plant response rating, Lambsquarters
# [17] = post-emergence, Postemergence, 62 g ai/ha, scale 0 to 100 (0 no effect, 100 complete control), read-out: Cocklebur plant response rating
# [18] = post-emergence, Postemergence, 125 g ai/ha, scale 0 to 100 (0 no effect, 100 complete control), read-out: Cocklebur plant response rating
# [19] = post-emergence, Postemergence, 250 g ai/ha, scale 0 to 100, read-out: Plant response rating, Cocklebur
# [20] = post-emergence, Postemergence, 500 g ai/ha, scale 0 to 100, read-out: Plant response rating, Cocklebur
# [21] = 62 g ai/ha, scale 0 to 100 (0 no effect, 100 complete control)
# [22] = Postemergence, 62 g ai/ha, scale 0 to 100 (0 no effect, 100 complete control)
# [23] = Postemergence, 125 g ai/ha, scale 0 to 100 (0 no effect, 100 complete control)
# [24] = Postemergence, 250 g ai/ha, scale 0 to 100
# [25] = Postemergence, 500 g ai/ha, scale 0 to 100
# [26] = Preemergence, 62 g ai/ha, scale 0 to 100, 0 no effect, 100 complete control
# [27] = Preemergence, 125 g ai/ha, scale 0 to 100
# [28] = Preemergence, 250 g ai/ha, scale 0 to 100
# [29] = Preemergence, 500 g ai/ha, scale 0 to 100
compound,measurement,setting,value
"CCOC(=O)c1nc(C2CC2)nc(N)c1Cl [Compound 4, ethyl 6-amino-5-chloro-2-cyclopropyl-4-pyrimidinecarboxylate]",pest or weed control at 62 g/ha,[1]; [5],100%
same,pest or weed control at 125 g/ha,[1]; [6],100%
same,pest or weed control at 250 g/ha,[1]; [7],100%
same,pest or weed control at 500 g/ha,[1]; [8],100%
same,pest or weed control at 62 g/ha,"[1]; pre-emergence, Preemergence, 62 g ai/ha, scale 0 to 100, 0 no effect, 100 complete control, read-out: Plant response rating, Ragweed",100%
same,pest or weed control at 125 g/ha,"[1]; pre-emergence, Preemergence, 125 g ai/ha, scale 0 to 100, read-out: Plant response rating, Ragweed",100%
same,pest or weed control at 250 g/ha,"[1]; pre-emergence, Preemergence, 250 g ai/ha, scale 0 to 100, read-out: Plant response rating, Ragweed",100%
same,pest or weed control at 500 g/ha,"[1]; pre-emergence, Preemergence, 500 g ai/ha, scale 0 to 100, read-out: Plant response rating, Ragweed",100%
same,"Corn plant response rating (crop injury, 0 = no effect, 100 = complete kill) at 62 g/ha",corn (Zea mays); [9],0%
same,"Corn plant response rating (crop injury, 0 = no effect, 100 = complete kill) at 125 g/ha",corn (Zea mays); [10],80%
same,"Corn plant response rating (crop injury, 0 = no effect, 100 = complete kill) at 250 g/ha",corn (Zea mays); [11],90%
same,"Corn plant response rating (crop injury, 0 = no effect, 100 = complete kill) at 500 g/ha",corn (Zea mays); [12],95%
same,"Corn plant response rating (crop injury, 0 = no effect, 100 = complete kill) at 125 g/ha","corn (Zea mays); pre-emergence, Preemergence, 125 g ai/ha, scale 0 to 100, read-out: Plant response rating, Corn",0%
same,"Corn plant response rating (crop injury, 0 = no effect, 100 = complete kill) at 250 g/ha","corn (Zea mays); pre-emergence, Preemergence, 250 g ai/ha, scale 0 to 100",75%
same,"Corn plant response rating (crop injury, 0 = no effect, 100 = complete kill) at 500 g/ha","corn (Zea mays); pre-emergence, Preemergence, 500 g ai/ha, scale 0 to 100",90%
same,pest or weed control at 62 g/ha,[2]; [13],100%
same,pest or weed control at 125 g/ha,[2]; [14],100%
same,pest or weed control at 250 g/ha,[2]; [15],100%
same,pest or weed control at 500 g/ha,[2]; [16],100%
same,pest or weed control at 62 g/ha,"[2]; pre-emergence, Preemergence, 62 g ai/ha, scale 0 to 100, 0 no effect, 100 complete control, read-out: Plant response rating, Lambsquarters",95%
same,pest or weed control at 125 g/ha,"[2]; pre-emergence, Preemergence, 125 g ai/ha, scale 0 to 100, read-out: Plant response rating, Lambsquarters",100%
same,pest or weed control at 250 g/ha,"[2]; pre-emergence, Preemergence, 250 g ai/ha, scale 0 to 100, read-out: Plant response rating, Lambsquarters",100%
same,pest or weed control at 500 g/ha,"[2]; pre-emergence, Preemergence, 500 g ai/ha, scale 0 to 100, read-out: Plant response rating, Lambsquarters",100%
same,pest or weed control at 62 g/ha,[3]; [17],85%
same,pest or weed control at 125 g/ha,[3]; [18],100%
same,pest or weed control at 250 g/ha,[3]; [19],100%
same,pest or weed control at 500 g/ha,[3]; [20],100%
same,pest or weed control at 62 g/ha,"[3]; pre-emergence, Preemergence, 62 g ai/ha, scale 0 to 100, 0 no effect, 100 complete control, read-out: Plant response rating, Cocklebur",80%
same,pest or weed control at 125 g/ha,"[3]; pre-emergence, Preemergence, 125 g ai/ha, scale 0 to 100, read-out: Plant response rating, Cocklebur",95%
same,pest or weed control at 250 g/ha,"[3]; pre-emergence, Preemergence, 250 g ai/ha, scale 0 to 100, read-out: Plant response rating, Cocklebur",100%
same,pest or weed control at 500 g/ha,"[3]; pre-emergence, Preemergence, 500 g ai/ha, scale 0 to 100, read-out: Plant response rating, Cocklebur",100%
same,pest or weed control at 62 g/ha,[4]; [21],30%
same,pest or weed control at 125 g/ha,[4]; 125 g ai/ha,85%
same,pest or weed control at 250 g/ha,[4]; 250 g ai/ha,100%
same,pest or weed control at 500 g/ha,[4]; 500 g ai/ha,100%
COC(=O)c1nc(C2CC2)nc(N)c1I [Compound 7],pest or weed control at 62 g/ha,[1]; [5],25%
same,pest or weed control at 125 g/ha,[1]; [6],35%
same,pest or weed control at 250 g/ha,[1]; [7],65%
same,pest or weed control at 500 g/ha,[1]; [8],75%
same,"Corn plant response rating (crop injury, 0 = no effect, 100 = complete kill) at 62 g/ha",corn (Zea mays); [9],0%
same,"Corn plant response rating (crop injury, 0 = no effect, 100 = complete kill) at 125 g/ha",corn (Zea mays); [10],0%
same,"Corn plant response rating (crop injury, 0 = no effect, 100 = complete kill) at 250 g/ha",corn (Zea mays); [11],0%
same,"Corn plant response rating (crop injury, 0 = no effect, 100 = complete kill) at 500 g/ha",corn (Zea mays); [12],0%
same,pest or weed control at 62 g/ha,[2]; [13],50%
same,pest or weed control at 125 g/ha,[2]; [14],60%
same,pest or weed control at 250 g/ha,[2]; [15],70%
same,pest or weed control at 500 g/ha,[2]; [16],80%
same,pest or weed control at 62 g/ha,[3]; [17],30%
same,pest or weed control at 125 g/ha,[3]; [18],30%
same,pest or weed control at 250 g/ha,[3]; [19],30%
same,pest or weed control at 500 g/ha,[3]; [20],30%
same,pest or weed control at 62 g/ha,[4]; [21],0%
same,pest or weed control at 125 g/ha,[4]; 125 g ai/ha,0%
same,pest or weed control at 250 g/ha,[4]; 250 g ai/ha,0%
same,pest or weed control at 500 g/ha,[4]; 500 g ai/ha,0%
COC(=O)CNc1nc(C2CC2)nc(C(=O)OC)c1Br [Compound 10],Ragweed plant response rating,[1]; [22],45
same,Ragweed plant response rating,[1]; [23],65
same,"Plant response rating, Ragweed",[1]; [24],80
same,"Plant response rating, Ragweed",[1]; [25],90
same,"Plant response rating, Ragweed",[1]; [26],0
same,"Plant response rating, Ragweed",[1]; [27],0
same,"Plant response rating, Ragweed",[1]; [28],55
same,"Plant response rating, Ragweed",[1]; [29],85
same,Corn plant response rating,corn (Zea mays); [22],0
same,Corn plant response rating,corn (Zea mays); [23],0
same,"Plant response rating, Corn",corn (Zea mays); [24],0
same,"Plant response rating, Corn",corn (Zea mays); [25],0
same,"Plant response rating, Corn",corn (Zea mays); [26],0
same,"Plant response rating, Corn",corn (Zea mays); [27],0
same,"Plant response rating, Corn",corn (Zea mays); [28],0
same,"Plant response rating, Corn",corn (Zea mays); [29],0
same,Lambsquarters plant response rating,[2]; [22],60
same,Lambsquarters plant response rating,[2]; [23],80
same,"Plant response rating, Lambsquarters",[2]; [24],90
same,"Plant response rating, Lambsquarters",[2]; [25],100
same,"Plant response rating, Lambsquarters",[2]; [26],0
same,"Plant response rating, Lambsquarters",[2]; [27],50
same,"Plant response rating, Lambsquarters",[2]; [28],65
same,"Plant response rating, Lambsquarters",[2]; [29],95
same,Cocklebur plant response rating,[3]; [22],0
same,Cocklebur plant response rating,[3]; [23],15
same,"Plant response rating, Cocklebur",[3]; [24],60
same,"Plant response rating, Cocklebur",[3]; [25],75
same,"Plant response rating, Cocklebur",[3]; [27],0
same,"Plant response rating, Cocklebur",[3]; [28],0
same,"Plant response rating, Cocklebur",[3]; [29],100
same,Chickweed plant response rating,[4]; [21],0
same,"Plant response rating, Chickweed",[4]; 125 g ai/ha,0
same,"Plant response rating, Chickweed",[4]; 250 g ai/ha,20
same,"Plant response rating, Chickweed",[4]; 500 g ai/ha,70
